The test system of the assay is Trichuris muris adults ex vivo, WormWatcher motility, 24 h. Nature of the assay: motility loss in adult Trichuris muris, dose response, whole organism, ex vivo, WormWatcher (AID 1224898).
Regarding `Cc1ccc(CN2C(=O)COCc3cc(-c4cccnc4)ccc32)cc1`, the EC50 was 57 µM. Next, `Cc1ccc(CN2C(=O)COCc3cc(-c4ccncc4)ccc32)cc1`: 50 µM. For the molecule `O=C1COCc2cc(-c3cccnc3)ccc2N1CC1CCCCC1`, the EC50 is 52 µM. For `Cc1ccc(CN2C(=O)COCc3cc(Br)ccc32)cc1`, the EC50 is 35 µM. Consider `O=C1COCc2cc(-c3cccnc3)ccc2N1Cc1ccc(C(F)(F)F)cc1`, for which the EC50 is 26 µM.

The term EC50 denotes the concentration at which the effect is half-maximal.

The record behind these values is PubChem BioAssay AID1224898.
